Reference: patent publication US8354569B2, “Plant acyltransferases specific for long-chained, multiply unsaturated fatty acids” (University of Bristol, priority 2003, dated 2013)

Key:
Shewanella LPAAT = assay: Functional expression of Shewanella LPAAT in E. coli, enzyme assays; assay type: biochemical, Shewanella hanedai; conditions: expressed at 10° C. in E. coli BL21, with or without His-tag; 30 μM thioester
Description: To clone an LPAAT gene from the prokaryotic organism Shewanella, the genomic DNA from Shewanella hanedai was isolated, partially digested with Sau3a and ligated into the vector pUC18. This genomic library was screened for LPAAT genes by a PCR using different primer combinations. This method has made it possible to identify a 1486 by clone whose open reading frame codes for a 25.2 kDa LPAAT protein. The ShLPAAT sequence was introduced into the vector pQE70 (Qiagen) in accordance with the manufacturer's instructions. The resulting plasmids pQE70-Sh and pQE70-ShHis and the blank vector pQE70 were transformed into E. coli BL21 cells and expressed at 10° C. (FIG. 22A). Active protein was obtained at this temperature only (FIG. 22B). The membrane fractions were used for this purpose in the further experiments. […] The high incorporation rate with regard to PUFA acyl-CoA residues is required for the use for the production of PUFA.
The assays were carried out with extracts (1 μg) from E. coli comprising the blank vector (pQE70) or a Shewanella construct without (pQE-Sh) or with His-Tag sequence at the 3′ end (pQE-ShHis) in the presence of 30 μM 1-oleoyl[U-14C]glycerol-3-phosphate and 30 μM of the detailed thioesters.

Thraustochytrium LPAAT = assay: Acyl-CoA specificity of Thraustochytrium LPAAT expressed as GST fusion protein in E. coli; assay type: biochemical; conditions: 0.4 μg soluble protein fraction, 30 μM 1-oleoyl[U-14C]glycerol-3-phosphate, increasing thioester concentrations
Description: The PCR product was transferred into the vector pDONOR221 by Gateway reaction (BP reaction; Invitrogen) following the manufacturer's instructions, and the sequence was verified by sequencing. In a next step, the ThLPAAT sequence was then transferred into the vector pDES15 by the LR reaction and employed for expression in E. coli BL21 cells. The ThLPAAT sequence was attached to the open reading frame of the glutathione-S transferase (GST) encoded in the plasmid, in accordance with the manufacturer's instructions. This gave rise to a fusion protein of GST and ThLPAAT.
Expressed protein was detected after expression under standard conditions in E. coli (FIG. 21A) and purified via a glutathione column.
The enzyme assays were determined using 0.4 μg of soluble protein fraction in the presence of 100 mM Tricine-NaOH (pH 8.2), 30 μM 1-oleoyl[U-^14C]glycerol-3-phosphate and increasing concentrations of the thioesters detailed.

CC/C=C\C/C=C\C/C=C\C/C=C\C/C=C\C/C=C\CCC(=O)SCCNC(=O)CCNC(=O)[C@H](O)C(C)(C)COP(=O)(O)OP(=O)(O)OC[C@H]1O[C@@H](n2cnc3c(N)ncnc32)[C@H](O)[C@@H]1OP(=O)(O)O [DHA-CoA]
Incorporation activity of the membrane fraction (Shewanella LPAAT): high level of activity
LPAAT activity of the purified GST fusion protein by acyl-CoA (Thraustochytrium LPAAT): highest activity
